According to paper PMC3816693, “Cell Penetration Properties of a Highly Efficient Mini Maurocalcine Peptide” (Pharmaceuticals, 2013):
Bridges are numbered along the chain shown (N, C = ends). Where no end group is shown, it is not given here.

Legend:
glioma F98 cells = assay: Cell penetration of Cy5-labeled peptides by flow cytometry (FACS); format: cell-based, rat; details: 2 h; for fold decrease in cell penetration efficacy relative to MCaUF1-9-C-Cy5: 3 µM, flow cytometry
Procedure: Undifferentiated malignant glioma rat (F98) cell line (from ATCC) was maintained at 37 °C in 5% CO2 in DMEM/F-12 nutrient medium (Invitrogen, Cergy Pontoise, France) supplemented with 2% (v/v) heat-inactivated fetal bovine serum (Invitrogen) and 100 µg/mL streptomycine and 100 units/mL penicillin (Invitrogen).
F98 cells were incubated with various concentrations of Cy5-labeled peptides in DMEM/F-12 culture medium without serum at 37 °C for 2 h. The cells were then washed with PBS to remove excess extracellular peptide and treated with 0.48 mM versene (Invitrogen) for 5 min at 37 °C to detach cells from the surface, and centrifuged at 200 g in DMEM/F-12 culture medium before suspension in PBS. For experiments concerning endocytosis inhibitors, F98 cells were initially preincubated in DMEM/F-12 culture medium without serum for 30 min at 37 °C with different inhibitors of endocytosis: (i) 100 µM amiloride, (ii) 5 µg/mL cytochalasin D (10 µM), (iii) 20 µM nocodazole, or (iv) 5 mM methyl-β-cyclodextrin (all from Sigma, Lyon, France). The cells were then incubated for 2 h at 37 °C with 1 µM MCaUF1-9-C-Cy5 in the presence of each drug. Flow cytometry analyses were performed with live cells using an Accuri C6 flow cytometer (BD Biosciences, Le Pont de Claix, France). Data were obtained and analyzed using CFlow Sampler (BD Biosciences). Live cells were gated by forward/side scattering from a total of 10,000 events.

[1] = high temperatures up to 100 °C or extreme pH values; cited from earlier work
Source text: Maurocalcine (MCa) is a 33 amino acid residue peptide that was isolated in 2000 from the venom of the Tunisian chactid scorpion Scorpio maurus palmatus. It folds according to an ‘Inhibitor Cystine Knot’ (ICK) motif and contains three disulfide bridges connected by the following pattern: C1-C4, C2-C5 and C3-C6 [3]. Based on high amino acid sequence and pharmacological target similarities, MCa belongs to a larger family of scorpion toxins that also includes imperatoxin A (from Pandinus imperator), opicalcine 1 and opicalcine 2 (from Opistophthalmus carinatus), hemicalci ...

[2] = cited from earlier work
Source text: Even if the mechanism(s) of penetration of CPP are subject to debate, because of the rapidity of action of MCa on the ryanodine receptor, it appears clearly that one way of penetration of MCa can be membrane translocation. Furthermore, MCa has the ability to bind onto glycosaminoglycans, including heparin and heparan sulfates, with micromolar affinity.

MCaUF1-9(A3)-C-Cy5: Abu3 replaced by Ala
fold decrease in cell penetration efficacy relative to MCaUF1-9-C-Cy5 (glioma F98 cells): 1.08 fold

MCaUF1-9(Q3)-C-Cy5: Abu3 replaced by Gln
fold decrease in cell penetration efficacy relative to MCaUF1-9-C-Cy5 (glioma F98 cells): 2.94 fold
cell penetration compared with TAT-C-Cy5 as standard (glioma F98 cells; dose-response by flow cytometry): behaved similarly to TAT

Maurocalcine (GDCLPHLKLCKENKDCCSKKCKRRGTNIEKRCR; disulfide 10-21, 16-32, 3-17; UniProt P60254 1-33, looked up) [MCa]
stability of structure against denaturation [1]: cannot be denatured
affinity of binding onto glycosaminoglycans [2]: micromolar
